Data from US20110237508A1, “Peptide Formulations and Uses Thereof” (RIJKSUNIVERSITEIT GRONINGEN, priority 2008, published 2011).

Experiments:
[1] = oral tablets, simulated tropical conditions; cited from earlier work
[2] = Oxytocin recovery by RP-HPLC after 4 weeks storage at 4 or 55° C.; format: physicochemical; conditions: pH 4.5, 4 weeks
Protocol: As shown herein below, the stabilizing effect of the combination of a buffer and at least one source of divalent metal ions at a concentration of at least 2 mM in an aqueous oxytocin formulation was determined by measuring the recovery of oxytocin (remaining oxytocin as % of initial amount), the amount of oxytocin-monomers (% of total remaining oxytocin) and/or the level of aggregation (aggregated oxytocin as % of total remaining oxytocin) upon prolonged storage at elevated (e.g. 55° C.) temperatures. These parameters can be assessed by using any method for analysis deemed suitable by a person skilled in the art. Examples of suitable methods for analysis include, but are not limited to, reversed-phase high-performance liquid chromatography (RP-HPLC) and high-performance size exclusion chromatography (HP-SEC). Thus, suitable concentrations of divalent metal ions to achieve the stabilizing effect at elevated temperatures can be determined by those skilled in the art. They may vary, e.g. depending on the composition of the formulation or its intended application. In one embodiment, a formulation comprises oxytocin or vasopressin and at least 2 mM, preferably at least 5, more preferably at least 10 mM divalent metal ions and a buffer. In another embodiment, a pH-buffered formulation comprises divalent metal ions in a concentration of up to 150 mM, preferably up to 100 mM, more preferably up to 50 mM. For example, a formulation comprises divalent metal ions in a concentration between 5 and 150 mM, preferably between 10 and 100 mM, more preferably between 10 and 50 mM. In one embodiment, between 2 and 150 mM divalent metal ions, preferably 5-100 mM, such as 10, 20, 25, 30, 40 or 50 mM, and a buffer are used to stabilize an aqueous peptide formulation. In another embodiment, a divalent metal ion concentration in the range from 20 to 100 mM is used, like 30-100 mM, 40-80 mM or 50-70 mM. Other suitable ranges include between 2 and 50 mM, between 30 and 60 mM and between 40 and 70 mM divalent metal ions. […]
Samples of each formulation were stored for 4 weeks at 4° C. (control) or 55° C. (test). Thereafter, all samples were stored under cooled conditions (2-8° C.) before analysis by RP-HPLC and HP-SEC. Effects on stability were determined by measuring the recovery of oxytocin and the percentage of oxytocin-monomers.
The thermal stability of oxytocin in the presence of combinations of a buffer and monovalent metal ions was investigated. Citrate buffer (CB), acetate buffer (AC) or aspartate buffer (AP) was used at a concentration of 10 mM. Monovalent metal ions Na^+ and K^+ were added in the form of their chloride salt (NaCl and KCl) and used in final concentrations of 10 and 20 mM. […] Samples of each formulation were stored for 4 weeks at 4° C. (control) or 55° C. (test). Thereafter, all samples were stored under cooled conditions (2-8° C.) before analysis by RP-HPLC and HP-SEC. Effects on stability were determined by measuring the recovery of oxytocin and the percentage of oxytocin-monomers.
(§1) Citrate buffer (CB) was used at concentrations of 5, 10 or 50 mM. Divalent metal ions (Ca^2+, Mg^2+ and Zn^2+) were added in the form of their chloride salt (CaCl2, MgCl2 and ZnCl2) and used in final concentrations of 0, 2, 5, 10 or 50 mM. […] Samples of each formulation were stored for 4 weeks at 4° C. (control) or 55° C. (test). Thereafter, all samples were stored under cooled conditions (2-8° C.) before analysis by RP-HPLC and HP-SEC. Effects on stability were determined by measuring the recovery of oxytocin and the percentage of oxytocin-monomers. The results are presented in FIGS. 4A and 4B (citrate buffer with Ca^2+), 5A and 5B (citrate buffer with Mg^2+) and 6A and 6B (citrate buffer with Zn^2+).
Divalent metal ions (Ca^2+, Mg^2+ and Zn^2+) were added in the form of their chloride salt (CaCl2, MgCl2 and ZnCl2) and used in final concentrations of 0, 2, 5, 10 or 50 mM. […] Samples of each formulation were stored for 4 weeks at 4° C. […]

[3] = cited from earlier work
[4] = Long-term stability study at 40° C., oxytocin recovery by RP-HPLC; format: physicochemical; conditions: 10 mM citrate buffer and 50 mM Ca2+, pH 4.5, 6 months at 40° C.
Protocol: (§2) A long-term stability study was performed to assess the thermal stability of pH-buffered oxytocin formulations comprising divalent metal ions over prolonged periods. Citrate buffer (CB) was added in concentrations of 5, 10 or 50 mM to formulations comprising 0.1 mg/ml oxytocin and 0, 10 or 50 mM Ca^2+ (CaCl2). […] Samples of each formulation were stored for 1, 2, 3 or 6 months at 40° C. Thereafter, all samples were stored under cooled conditions (2-8° C.) before analysis by RP-HPLC and HP-SEC. Effects on stability were determined by measuring the recovery of oxytocin and the percentage of oxytocin-monomers.

[5] = Oxytocin monomer recovery by HP-SEC after 4 weeks storage at 4 or 55° C.; format: physicochemical; conditions: pH 4.5, 4 weeks
Protocol: As shown herein below, the stabilizing effect of the combination of a buffer and at least one source of divalent metal ions at a concentration of at least 2 mM in an aqueous oxytocin formulation was determined by measuring the recovery of oxytocin (remaining oxytocin as % of initial amount), the amount of oxytocin-monomers (% of total remaining oxytocin) and/or the level of aggregation (aggregated oxytocin as % of total remaining oxytocin) upon prolonged storage at elevated (e.g. 55° C.) temperatures. These parameters can be assessed by using any method for analysis deemed suitable by a person skilled in the art. Examples of suitable methods for analysis include, but are not limited to, reversed-phase high-performance liquid chromatography (RP-HPLC) and high-performance size exclusion chromatography (HP-SEC). Thus, suitable concentrations of divalent metal ions to achieve the stabilizing effect at elevated temperatures can be determined by those skilled in the art. They may vary, e.g. depending on the composition of the formulation or its intended application. In one embodiment, a formulation comprises oxytocin or vasopressin and at least 2 mM, preferably at least 5, more preferably at least 10 mM divalent metal ions and a buffer. In another embodiment, a pH-buffered formulation comprises divalent metal ions in a concentration of up to 150 mM, preferably up to 100 mM, more preferably up to 50 mM. For example, a formulation comprises divalent metal ions in a concentration between 5 and 150 mM, preferably between 10 and 100 mM, more preferably between 10 and 50 mM. In one embodiment, between 2 and 150 mM divalent metal ions, preferably 5-100 mM, such as 10, 20, 25, 30, 40 or 50 mM, and a buffer are used to stabilize an aqueous peptide formulation. In another embodiment, a divalent metal ion concentration in the range from 20 to 100 mM is used, like 30-100 mM, 40-80 mM or 50-70 mM. Other suitable ranges include between 2 and 50 mM, between 30 and 60 mM and between 40 and 70 mM divalent metal ions.
Divalent metal ions (Ca^2+, Mg^2+ and Zn^2+) were added as metal chloride salts (MC12) to a non-buffered formulation comprising oxytocin and pure water (W). The divalent metal ions were used at concentrations of 0, 2, 5, 10 and 50 mM. […] Effects on stability were determined by measuring the recovery of oxytocin and the percentage of oxytocin-monomers.
Samples of each formulation were stored for 4 weeks at 4° C. […] Effects on stability were determined by measuring the recovery of oxytocin and the percentage of oxytocin-monomers.
The thermal stability of oxytocin in the presence of combinations of a buffer and monovalent metal ions was investigated. […] Effects on stability were determined by measuring the recovery of oxytocin and the percentage of oxytocin-monomers. […]

[6] = Precipitation of oxytocin in citrate buffer with Ca2+; format: physicochemical; conditions: 100 mM Ca2+
Protocol: as §1, with “of” for “of 5, 10 or 50 mM. Divalent metal ions (Ca^2+, Mg^2+ and Zn^2+) were added in the form of their chloride salt (CaCl2, MgCl2 and ZnCl2) and used in final concentrations of 0, 2,”

[7] = Long-term stability study at 40° C., oxytocin monomers by HP-SEC; format: physicochemical; conditions: 10 mM citrate buffer and 50 mM Ca2+, pH 4.5, 6 months at 40° C.
Protocol: as §2

Question: With `CC[C@H](C)[C@@H]1NC(=O)[C@H](Cc2ccc(O)cc2)NC(=O)CCSSC[C@@H](C(=O)N2CCC[C@H]2C(=O)N[C@@H](CC(C)C)C(=O)NCC(N)=O)NC(=O)[C@H](CC(N)=O)NC(=O)[C@H](CCC(N)=O)NC1=O` [desamino-oxytocin] as the molecule, how does the stability of tablets [1] read?
Answer: The stability of tablets was “not stable”.

Question: With `C[C@@H](CO)NC(=O)[C@@H]1C=C2c3cccc4[nH]cc(c34)C[C@H]2N(C)C1` [ergometrine] as the molecule, how does the stability of tablets [1] read?
Answer: Its stability of tablets is “not stable”.

Question: What does the source list for `CC[C@H](C)[C@@H]1NC(=O)[C@H](Cc2ccc(O)cc2)NC(=O)[C@@H](N)CSSC[C@@H](C(=O)N2CCC[C@H]2C(=O)N[C@@H](CC(C)C)C(=O)NCC(N)=O)NC(=O)[C@H](CC(N)=O)NC(=O)[C@H](CCC(N)=O)NC1=O` [oxytocin]?
Answer: stability of tablets [1]: not stable; original quantity of oxytocin recovered ([2]; 10 mM acetate buffer & 10 mM Na+): ≤ 35%; remaining percentage of oxytocin ([2]; 10 mM acetate buffer with 50 mM Ca2+, 50 mM Mg2+ or 50 mM Zn2+): Small increases; stabilizing effect ([2]; 10 mM aspartate buffer with Ca2+ or Mg2+): only smaller effects; stabilizing effect ([2]; 10 mM aspartate buffer with Zn2+ (2-50 mM)): strong concentration-dependent stabilizing effect; oxytocin remained ([2]; 10 mM aspartate buffer with Zn2+): Up to 75%; thermal stability of oxytocin ([2]; 10 mM citrate, acetate or aspartate buffer with 10 or 20 mM Na+ or K+): minor effects; oxytocin stability ([2]; 50 mM citrate buffer with Ca2+): only increased together with 50 mM Ca^2+; oxytocin stability ([2]; 50 mM citrate buffer with Mg2+): only increased at 50 mM Mg^2+; oxytocin stability ([2]; 50 mM citrate buffer with Zn2+): only increased at 50 mM Zn^2+; oxytocin stability ([2]; 5 or 10 mM citrate buffer and 50 mM Ca2+): Largest increases in stability; oxytocin stability ([2]; 5 or 10 mM citrate buffer and 50 mM Mg2+): largest increases in stability; oxytocin stability ([2]; citrate buffer with 2 or 5 mM Zn2+): large increases in stability; oxytocin stability ([2]; citrate, acetate or aspartate buffer, no divalent metal ions): small increase; effect on oxytocin stability ([3]; dissolved in commercially obtainable lactated Ringer's solution): no effect on oxytocin stability at all; stability of oxytocin ([3]; in Ringer's, room temperature, 0.08 IU/ml): already compromised after 30 days; original amount of oxytocin preserved [4]: around 70%; remaining oxytocin in monomeric form ([5]; 10 mM acetate buffer & 10 mM Na+, 55° C.): around 30%; percentage of oxytocin monomers ([5]; citrate buffer with Ca2+, 55° C.): up to 80%; percentage of remaining oxytocin monomers ([5]; citrate buffer with Zn2+, 55° C.): up to 90%; remaining oxytocin-monomers ([5]; non-buffered pure water with divalent metal ions, 4 or 55° C.): loss of monomers was only prevented at 4 °C in the presence of Ca^2+ or Zn^2+; precipitation [6]: precipitates were observed; portion remained in monomeric form [7]: more than 80%
